By IC50 is commonly meant the midpoint of a concentration-inhibition curve.

One experiment has as its target Src kinase (Homo sapiens, UniProt P12931). As to the kind of experiment: Src enzymatic activity, mobility shift assay (MSA).
On the set-up of experiment [1]: method as in earlier work. The settings on record: comparison values, ref Gierse et al., 1999, Papp-Wallace et al., 2014, Schwartz et al.; cited from earlier work.

Sequence of Src kinase (P12931 254-536): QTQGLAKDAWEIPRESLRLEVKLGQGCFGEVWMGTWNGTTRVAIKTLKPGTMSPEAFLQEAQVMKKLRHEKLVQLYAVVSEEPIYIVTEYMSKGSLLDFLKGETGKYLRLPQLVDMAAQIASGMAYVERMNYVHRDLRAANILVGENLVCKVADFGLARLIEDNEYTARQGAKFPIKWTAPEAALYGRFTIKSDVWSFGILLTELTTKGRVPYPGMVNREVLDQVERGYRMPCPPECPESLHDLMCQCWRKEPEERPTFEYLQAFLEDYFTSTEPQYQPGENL
Protocol for Src kinase: Here, we evaluated the relative potency of inhibitors on Src enzymatic activity using a mobility shift assay (MSA), which measures phosphorylation of a peptide substrate of Src. […] The kinase reaction buffer consisted of 100 mM Hepes, pH 7.3, 0.015% Brij-35, 0.004% Tween-20, and 10 mM MgCl2. […] The percent conversion was determined by EZReader 3.0 software and analyzed using GraphPad software version 7 (La Jolla, California, USA) for determination of IC50 values.

`C=CC(=O)Nc1ccccc1Nc1nc(Nc2ccc(N3CCN(C)CC3)cc2)ncc1Cl` [SM1-71]: the IC50 on Src kinase was found to be 26.6 nM.

As for `CCOc1cc2ncc(C#N)c(Nc3ccc(OCc4ccccn4)c(Cl)c3)c2cc1NC(=O)/C=C/CN(C)C` [neratinib], the “inactivation rate constant (kinact)” value in experiment [1] is 0.002 s⁻¹.

In the case of `CN(C)C/C=C/C(=O)Nc1cc2c(Nc3ccc(F)c(Cl)c3)ncnc2cc1O[C@H]1CCOC1` [afatinib], in experiment [1], the “inactivation rate constant (kinact)” value was 0.001 s⁻¹.

The values are drawn from PMC7248381, “Structure and Characterization of a Covalent Inhibitor of Src Kinase” (Frontiers in Molecular Biosciences, 2020).
